PubChem BioAssay AID1963838 (Molecular Pharmacology Branch, DTP, NCI, 2024)

Test system: 855422-203-R-J1-PDC complex spheroid viability
Assay: Anticancer human tumor 855422-203-R-J1-PDC patient-derived bladder carcinoma cell line growth inhibition [POLQ]
Settings: for IC50: curve of first compound; for viability, T/C: stronger effect = lower value
Experimental: Multicellular complex tumor spheroid response to Polymerase (POL) inhibitors (novobiocin, ART-558, RP6685) in combination with a variety of drugs and investigational agents in selected tumor cell lines
The POL inhibitors (novobiocin, ART-558, and RP6685) were evaluated both individually and in combination with standard of care and investigational anticancer small molecules within a complex spheroid model of solid tumors. . Complex spheroids include a stromal component modeled by human endothelial cells (HUVEC) and fibroblasts modeled by human mesenchymal stem cells (MSCs). The concentration ranges selected for each drug and investigational agent were based upon clinically achievable concentrations if the clinical Cmax of the agent was known.
Compounds. The drugs and investigational agents: novobiocin (NSC847541), ART-558 (NSC835418), RP-6685 (NSC848927), peposertib (NSC802822), ceralasertib (NSC780249), elimusertib (NSC800525), camonsertib (NSC841442), AZD-1390 (NSC803789), olaparib (NSC753686), talazoparib (NSC767125), rucaparib (NSC756644), sotorasib (NSC818433), MRTX-1133 (NSC836407), SN-38 (NSC673596), topotecan (NSC609699), epotoside (NSC141540), doxorubicin (NSC123127), gemcitabine (NSC613327), 5-fluorouracil (NSC19893), paclitaxel (NSC125973), vemurafenib (NSC761431), MSA-2 (NSC828583), SN-011 (NSC837082), adavosertib (NSC754352), prexasertib (NSC758257), carboplatin (NSC241240) and oxaliplatin (NSC266046), were obtained from the National Cancer Institute (NCI) Developmental Therapeutics Program Chemical Repository (21). The FDA-approved anticancer drug set is available from the Developmental Therapeutics Program at https://dtp.cancer.gov/organization/dscb/obtaining/. […] The stock solutions were prepared in dimethyl sulfoxide (DMSO, Sigma-Aldrich, St. Louis, MO, cat. D2650), except for the platinum compounds which were prepared in saline (Quality Biological, Gaithersburg, MD, cat. 114-055-101), at 800-fold the tested concentration and stored at -70 degrees C prior to their use. All drugs and investigational agents were tested over a range starting from a high concentration at or near the clinical Cmax and decreasing in half-log increments. If the clinical Cmax for an agent had not been determined, the highest concentration tested was 10 microM, except for SN-38, which was tested at a high concentration of 1 microM.
Cell Culture. All cells were maintained in an incubator at 37 degrees C and 5% CO2 with 95% humidity. The PDC lines were cultured according to standard operating procedures established by the NCI PDMR (https://pdmr.cancer.gov). Table 3 of the manuscript, lists the cell lines along with the number of the three cell types plated to form the mct-spheroids and media for tumor cell growth. After thawing, all PDC lines, except 997537-175-T-J1-PDC and 415267-285-R-J2-PDC, were cultured in Matrigel-coated flasks prepared with a working solution of 1X Ham's F-12 nutrient mix, without supplementation (Thermo Fisher Scientific, cat. 11765054), 100 U/mL penicillin-streptomycin (Thermo Fisher Scientific, cat. 15140122), and 2.5% Matrigel (Corning Inc., Corning, NY, cat. 354248) for the first three passages. The two PDC lines 997537-175-T-J1-PDC and 415267-285-R-J2-PDC were cultured on uncoated flasks. The 857933-349-R-J2-PDC line was cultured in 6C/Colon 1B media containing advanced DMEM/F-12 (Thermo Fisher Scientific, cat. 12634028), 10 mM HEPES (Thermo Fisher Scientific, cat. 15630080), 1X GlutaMAX supplement (Thermo Fisher Scientific, cat. 35050061), 0.1 mg/mL primocin (InvivoGen, San Diego, CA, cat. ant-pm-2), 10% defined fetal bovine serum, heat inactivated (HyClone Laboratories Inc., Logan, UT, cat. SH30070.03HI), 50% L-WRN conditioned media (ATCC, cat. CRL-3276), 1.25 mM N-Acetyl-L-cysteine (Sigma-Aldrich, cat. A9165), 10 mM nicotinamide (Sigma-Aldrich, cat. N0636), 1X B-27 supplement (Thermo Fisher Scientific, cat. 17504044), 1X N-2 supplement (Thermo Fisher Scientific, cat. […]

[1] = second compound 0.0316 µM, first compound 0.00316 µM
[2] = second compound 0.0316 µM, first compound 0.01 µM
[3] = second compound 0.0316 µM, first compound 0.0316 µM
[4] = second compound 0.0316 µM, first compound 0.1 µM
[5] = second compound 0.0316 µM, first compound 0.316 µM
[6] = second compound 0.0316 µM, first compound 1 µM
[7] = second compound 0.1 µM, first compound 0.00316 µM
[8] = second compound 0.1 µM, first compound 0.01 µM
[9] = second compound 0.1 µM, first compound 0.0316 µM
[10] = second compound 0.1 µM, first compound 0.1 µM
[11] = second compound 0.1 µM, first compound 0.316 µM
[12] = second compound 0.1 µM, first compound 1 µM
[13] = second compound 0.316 µM, first compound 0.00316 µM
[14] = second compound 0.316 µM, first compound 0.01 µM
[15] = second compound 0.316 µM, first compound 0.0316 µM
[16] = second compound 0.316 µM, first compound 0.1 µM
[17] = second compound 0.316 µM, first compound 0.316 µM
[18] = second compound 0.316 µM, first compound 1 µM
[19] = second compound 1 µM, first compound 0.00316 µM
[20] = second compound 1 µM, first compound 0.01 µM
[21] = second compound 1 µM, first compound 0.0316 µM
[22] = second compound 1 µM, first compound 0.1 µM
[23] = second compound 1 µM, first compound 0.316 µM
[24] = second compound 1 µM, first compound 1 µM
[25] = second compound 3.16 µM, first compound 0.00316 µM
[26] = second compound 3.16 µM, first compound 0.01 µM
[27] = second compound 3.16 µM, first compound 0.0316 µM
[28] = second compound 3.16 µM, first compound 0.1 µM
[29] = second compound 3.16 µM, first compound 0.316 µM
[30] = second compound 3.16 µM, first compound 1 µM
[31] = second compound 10 µM, first compound 0.00316 µM
[32] = second compound 10 µM, first compound 0.01 µM
[33] = second compound 10 µM, first compound 0.0316 µM
[34] = second compound 10 µM, first compound 0.1 µM
[35] = second compound 10 µM, first compound 0.316 µM
[36] = second compound 10 µM, first compound 1 µM
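Also: spheroids exposed to compounds for seven days before readout.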

## C=CCn1c(=O)c2cnc(Nc3ccc(N4CCN(C)CC4)cc3)nc2n1-c1cccc(C(C)(C)O)n1 + Cc1cccc(N(C)C(=O)C2C(O)CCN2c2nc(C)cc(C(F)(F)F)c2C#N)c1
Second compound 0.0316 µM
  IC50: > 1000 nM
Second compound 0.1 µM
  IC50: > 1000 nM
Second compound 0.316 µM
  IC50: > 1000 nM
Second compound 1 µM
  IC50: > 1000 nM
Second compound 3.16 µM
  IC50: > 1000 nM
Second compound 10 µM
  IC50: > 1000 nM
[1]
  viability, T/C: 109%
[2]
  viability, T/C: 124%
[3]
  viability, T/C: 98%
[4]
  viability, T/C: 100%
[5]
  viability, T/C: 113%
[6]
  viability, T/C: 148%
[7]
  viability, T/C: 110%
[8]
  viability, T/C: 122%
[9]
  viability, T/C: 93%
[10]
  viability, T/C: 99%
[11]
  viability, T/C: 124%
[12]
  viability, T/C: 175%
[13]
  viability, T/C: 102%
[14]
  viability, T/C: 101%
[15]
  viability, T/C: 95.7%
[16]
  viability, T/C: 101%
[17]
  viability, T/C: 126%
[18]
  viability, T/C: 173%
[19]
  viability, T/C: 87.7%
[20]
  viability, T/C: 112%
[21]
  viability, T/C: 91.1%
[22]
  viability, T/C: 118%
[23]
  viability, T/C: 124%
[24]
  viability, T/C: 165%
[25]
  viability, T/C: 91.4%
[26]
  viability, T/C: 107%
[27]
  viability, T/C: 100%
[28]
  viability, T/C: 105%
[29]
  viability, T/C: 115%
[30]
  viability, T/C: 186%
[31]
  viability, T/C: 119%
[32]
  viability, T/C: 105%
[33]
  viability, T/C: 115%
[34]
  viability, T/C: 137%
[35]
  viability, T/C: 208%
[36]
  viability, T/C: 123%

## COc1cccc(OCCCN)c1-c1cc(Nc2cnc(C#N)cn2)n[nH]1 + Cc1cccc(N(C)C(=O)C2C(O)CCN2c2nc(C)cc(C(F)(F)F)c2C#N)c1
Second compound 0.0316 µM
  IC50: 26.3 nM
Second compound 0.1 µM
  IC50: 23.9 nM
Second compound 0.316 µM
  IC50: 25.6 nM
Second compound 1 µM
  IC50: 24.7 nM
Second compound 3.16 µM
  IC50: 23.7 nM
Second compound 10 µM
  IC50: 21.7 nM
[1]
  viability, T/C: 122%
[2]
  viability, T/C: 162%
[3]
  viability, T/C: 32.3%
[4]
  viability, T/C: 11.9%
[5]
  viability, T/C: 8.13%
[6]
  viability, T/C: 5.03%
[7]
  viability, T/C: 98.7%
[8]
  viability, T/C: 149%
[9]
  viability, T/C: 26.4%
[10]
  viability, T/C: 8.17%
[11]
  viability, T/C: 7.52%
[12]
  viability, T/C: 6.18%
[13]
  viability, T/C: 99.1%
[14]
  viability, T/C: 144%
[15]
  viability, T/C: 34.1%
[16]
  viability, T/C: 13.6%
[17]
  viability, T/C: 7.31%
[18]
  viability, T/C: 6.21%
[19]
  viability, T/C: 97.4%
[20]
  viability, T/C: 133%
[21]
  viability, T/C: 32.1%
[22]
  viability, T/C: 9.07%
[23]
  viability, T/C: 8.72%
[24]
  viability, T/C: 8.98%
[25]
  viability, T/C: 87.8%
[26]
  viability, T/C: 183%
[27]
  viability, T/C: 21.4%
[28]
  viability, T/C: 14.6%
[29]
  viability, T/C: 7.43%
[30]
  viability, T/C: 5.57%
[31]
  viability, T/C: 137%
[32]
  viability, T/C: 94.1%
[33]
  viability, T/C: 28.3%
[34]
  viability, T/C: 11.2%
[35]
  viability, T/C: 9.5%
[36]
  viability, T/C: 7.47%

## O=c1[nH]cc(F)c(=O)[nH]1 + Cc1cccc(N(C)C(=O)C2C(O)CCN2c2nc(C)cc(C(F)(F)F)c2C#N)c1
Second compound 0.0316 µM
  IC50: 605 nM
Second compound 0.1 µM
  IC50: 389 nM
Second compound 0.316 µM
  IC50: 387 nM
Second compound 1 µM
  IC50: 496 nM
Second compound 3.16 µM
  IC50: 537 nM
Second compound 10 µM
  IC50: 554 nM
[3]
  viability, T/C: 133%
[4]
  viability, T/C: 96.3%
[5]
  viability, T/C: 67.1%
[6]
  viability, T/C: 36.8%
Second compound 0.0316 µM, first compound 3.16 µM
  viability, T/C: 27.6%
Second compound 0.0316 µM, first compound 10 µM
  viability, T/C: 25.7%
[9]
  viability, T/C: 109%
[10]
  viability, T/C: 128%
[11]
  viability, T/C: 54.8%
[12]
  viability, T/C: 33.2%
Second compound 0.1 µM, first compound 3.16 µM
  viability, T/C: 26.3%
Second compound 0.1 µM, first compound 10 µM
  viability, T/C: 24.2%
[15]
  viability, T/C: 115%
[16]
  viability, T/C: 118%
[17]
  viability, T/C: 54.6%
[18]
  viability, T/C: 34.5%
Second compound 0.316 µM, first compound 3.16 µM
  viability, T/C: 27.4%
Second compound 0.316 µM, first compound 10 µM
  viability, T/C: 23.1%
[21]
  viability, T/C: 112%
[22]
  viability, T/C: 107%
[23]
  viability, T/C: 61.1%
[24]
  viability, T/C: 33.7%
Second compound 1 µM, first compound 3.16 µM
  viability, T/C: 26.6%
Second compound 1 µM, first compound 10 µM
  viability, T/C: 24.1%
[27]
  viability, T/C: 109%
[28]
  viability, T/C: 99.5%
[29]
  viability, T/C: 62.6%
[30]
  viability, T/C: 35.2%
Second compound 3.16 µM, first compound 3.16 µM
  viability, T/C: 29.1%
Second compound 3.16 µM, first compound 10 µM
  viability, T/C: 27%
[33]
  viability, T/C: 109%
[34]
  viability, T/C: 114%
[35]
  viability, T/C: 65.2%
[36]
  viability, T/C: 40.1%
Second compound 10 µM, first compound 3.16 µM
  viability, T/C: 32.6%
Second compound 10 µM, first compound 10 µM
  viability, T/C: 26.6%
